Source: US20220202739A1, “ENDOCANNABINOID MIMETIC AND ANTI-INFLAMMATORY COMPOUND CONTAINING COMPOSITIONS, METHODS OF PREPARATION AND USES THEREOF” (priority 2019, published 2022)
Like-named read-outs stand apart in the source and are kept apart here.

Assays:
Format in all cases: cell-based
NFKB1 = assay: Gene expression custom microarray, human skin fibroblasts (Example 1): NFKB1; conditions: human skin fibroblasts, 10 uM, 24 hr; for fold induction at 10 µM: Skin fibroblast, read-out: NFKB1↓ gene expression, fold increase or decrease vs untreated cells
Excerpt: (§1) Cell cultures: A human skin fibroblast cell culture (or cultures) was obtained through the Coriell Cell Repository from the National Institute on Aging Cell Repository (Camden, N.J.), or Promocell GmbH (Heidelberg, Germany). The initial culture was selected from the following cell lines: AG13066, AG11557, AG11796 or GM03651E. The cell lines were derived from donors as follows:
(§2) Experimental phase: When the appropriate quantity of cells had been grown, they were detached as described above, but at the final step were seeded into each well of one or more 6 well dishes. Each well received 2 ml of the cell suspension so they were seeded equally. The dishes were returned to the incubator until 85-95% confluency was reached.
(§3) It is at this stage that all wells were rinsed in PBS after aspirating the growth media. The compound(s) to be tested were previously mixed into a suitable solvent (e.g., DMSO or ethanol) that can be diluted to the desired concentration of test compound (10 μl) in the culture wells without exceeding maximum solvent concentrations and adversely effecting cell viability, and mixed with basal media. NOTE: Standard maximum levels of solvent are 0.1% for DMSO and 0.5% for ETOH.
(§4) Every 2 wells on the 6 well plate served as a biological replicate for the purposes of RNA isolation and genetic expression evaluations making each 6 well dish an n=3 for the test compound(s) contained in the media. Negative control plates (no test compound(s) and only basal media) were also generated. The plates were returned to the incubator for 24 hrs.
(§5) At the end of the 24 hr time period, the plates were removed from the incubator, the test media aspirated, and the cells rinsed with PBS. RNA isolation is performed using the BioRad Aurum Total RNA Mini Kit (Hercules, Calif.) per manufacturer's protocol; which is described, in brief, below: • Add 350 μl of lysis buffer to each well. Pipet multiple times to ensure thorough lysis. Add lysed cells to the collection tube. • Add 350 μl of 70% ETOH to the collection tube and mix thoroughly. • Pipet the generated lysate onto the spin column placed in a new 2 ml tube. Centrifuge for 30 sec between 8,000 and 10,000 g. • Place the spin column containing the now bound RNA, in a new 2 ml tube. Add 700 μl of low stringency wash solution to the spin column. Centrifuge for 30 sec between 8,000 and 10,000 g. Discard the flow through and replace spin column. • Add 80 μl of DNase I dilution to the spin column and incubate at room temperature for 15 minutes. • Add 700 μl of high stringency wash solution to the column and centrifuge for 30 sec between 8,000 and 10,000 g. Discard flow through. • Add 700 μl of low stringency wash solution to the column and centrifuge for 60 sec between 8,000 and 10,000 g. Discard flow through. • Centrifuge for 2 minutes to remove residual wash solution. • Transfer spin column to new 1.5 ml collection tube and add 80 μl of elution solution to the column. Allow 1 minute for saturation of the membrane and then centrifuge for 2 minutes to complete the RNA elution. • Quantify the quantity of RNA and store at −20 C° until use (no more than 1 month)
(§6) The genes tested were: • Cannabinoid receptor 1 (CB1(CNR1)) • Cannabinoid receptor 2 (CB2 (CNR2)) • Fatty acid amide hydrolase (FAAH) • Monoacylglycerol lipase (MGLL, i.e., MAGL) • Peroxisome proliferator-activated receptor gamma (PPARG) • Nuclear factor kappa-light-chain-enhancer of activated B cells (NFκβ) • Interleukin 1 Alpha (IL1alpha) • Cyclooxygenase 1 (PTGS1, i.e., COX1) • Transient receptor potential cation channel subfamily A member 1 (TRPA1) • Transient receptor potential cation channel subfamily V member 1 (TRPV1) • Transient receptor potential cation channel subfamily M member 8 (TRPM8) • Hemoglobin Subunit Beta (HBB) REFERENCE GENE • Ribosomal Protein L13a (RPL13A) REFERENCE GENE

TRPA1 = assay: Gene expression custom microarray, human skin fibroblasts (Example 1): TRPA1; conditions: for fold induction at 10 µM: Skin fibroblast, read-out: TRPA1↑ gene expression, fold increase or decrease vs untreated cells
Excerpt: as §1, §2
as §3, with “ETOH. The concentration of each test compound is found in Tables 1 & 2.” for “ETOH.”
as §4, §5
(§7) The genes tested were: • Cannabinoid receptor 1 (CB1(CNR1)) • Cannabinoid receptor 2 (CB2 (CNR2)) • Fatty acid amide hydrolase (FAAH) • Monoacylglycerol lipase (MGLL, i.e., MAGL) • Peroxisome proliferator-activated receptor gamma (PPARG) • Nuclear factor kappa-light-chain-enhancer of activated B cells (NFκβ) • Interleukin 1 Alpha (IL1alpha) • Cyclooxygenase 1 (PTGS1, i.e., COX1) • Transient receptor potential cation channel subfamily A member 1 (TRPA1) • Transient receptor potential cation channel subfamily V member 1 (TRPV1) • Transient receptor potential cation channel subfamily M member 8 (TRPM8) • Hemoglobin Subunit Beta (HBB) REFERENCE GENE • Ribosomal Protein L13a (RPL13A) REFERENCE GENE […]

PTGS1 = assay: Gene expression custom microarray, human skin fibroblasts (Example 1): PTGS1; conditions: human skin fibroblasts, 10 uM, 24 hr; for fold induction at 10 µM: Skin fibroblast, read-out: PTGS1↓ gene expression, fold increase or decrease vs untreated cells
Excerpt: as §1, §2
as §3, with “ETOH. The concentration of each test compound is found in Tables 1 & 2.” for “ETOH.”
as §4, §5, §7

MAGL = assay: Gene expression custom microarray, human skin fibroblasts (Example 1): MAGL; conditions: human skin fibroblasts, 10 uM, 24 hr; for fold induction at 10 µM: Skin fibroblast, read-out: MAGL↓ gene expression, fold increase or decrease vs untreated cells
Excerpt: as §1, §2
as §3, with “ETOH. The concentration of each test compound is found in Tables 1 & 2.” for “ETOH.”
as §4, §5, §7

FAAH = assay: Gene expression custom microarray, human skin fibroblasts (Example 1): FAAH; conditions: human skin fibroblasts, 10 uM, 24 hr; for fold induction at 10 µM: Skin fibroblast, read-out: FAAH↓ gene expression, fold increase or decrease vs untreated cells
Excerpt: as §1, §2
as §3, with “ETOH. The concentration of each test compound is found in Tables 1 & 2.” for “ETOH.”
as §4, §5, §7

CNR2 = assay: Gene expression custom microarray, human skin fibroblasts (Example 1): CNR2; conditions: human skin fibroblasts, 10 uM, 24 hr
Excerpt: as §1, §2
as §3, with “ETOH. The concentration of each test compound is found in Tables 1 & 2.” for “ETOH.”
as §4, §5, §7

CNR1 = assay: Gene expression custom microarray, human skin fibroblasts (Example 1): CNR1
Excerpt: as §1, §2
as §3, with “ETOH. The concentration of each test compound is found in Tables 1 & 2.” for “ETOH.”
as §4, §5, §7

TRPM8 = assay: Gene expression custom microarray, human skin fibroblasts (Example 1): TRPM8; conditions: 24 hr
Excerpt: as §1, §2
as §3, with “ETOH. The concentration of each test compound is found in Tables 1 & 2.” for “ETOH.”
as §4, §5, §7

PPARG = assay: Gene expression custom microarray, human skin fibroblasts (Example 1): PPARG; conditions: human skin fibroblasts, 10 uM, 24 hr; for fold induction at 10 µM: Skin fibroblast, read-out: PPARG↑ gene expression, fold increase or decrease vs untreated cells
Excerpt: as §1, §2, §3, §4, §5, §6

IL1A = assay: Gene expression custom microarray, human skin fibroblasts (Example 1): IL1A; conditions: 24 hr
Excerpt: as §1, §2
as §3, with “ETOH. The concentration of each test compound is found in Tables 1 & 2.” for “ETOH.”
as §4, §5, §7

TRPV1 = assay: Gene expression custom microarray, human skin fibroblasts (Example 1): TRPV1; conditions: 10 uM, 24 hr
Excerpt: as §1, §2
as §3, with “ETOH. The concentration of each test compound is found in Tables 1 & 2.” for “ETOH.”
as §4
At the end of the 24 hr time period, the plates were removed from the incubator, the test media aspirated, and the cells rinsed with PBS. RNA isolation is performed using the BioRad Aurum Total RNA Mini Kit (Hercules, Calif.) per manufacturer's protocol; which is described, in brief, below: • Add 350 μl of lysis buffer to each well. Pipet multiple times to ensure thorough lysis. Add lysed cells to the collection tube. • Add 350 μl of 70% ETOH to the collection tube and mix thoroughly. • Pipet the generated lysate onto the spin column placed in a new 2 ml tube. Centrifuge for 30 sec between 8,000 and 10,000 g. • Place the spin column containing the now bound RNA, in a new 2 ml tube. Add 700 μl of low stringency wash solution to the spin column. Centrifuge for 30 sec between 8,000 and 10,000 g. […] Allow 1 minute for saturation of the membrane and then centrifuge for 2 minutes to complete the RNA elution. • Quantify the quantity of RNA and store at −20 C° until use (no more than 1 month) […]

[1] = human skin fibroblasts, 10 uM, 24 hr

Structure (SMILES) | fold induction at 10 µM (NFKB1) | fold induction at 10 µM (PTGS1) | fold induction at 10 µM (MAGL) | fold induction at 10 µM (FAAH) | fold induction at 10 µM (TRPA1; [1]) | fold induction at 10 µM (PPARG) | further results
CC(C)=CCC[C@](C)(O[C@@H]1O[C@H](CO[C@@H]2O[C@@H](CO)[C@H](O)[C@H]2O)[C@@H](O)[C@H](O)[C@H]1O)[C@H]1CC[C@]2(C)[C@@H]1[C@H](O)C[C@@H]1[C@@]3(C)CC[C@H](O[C@@H]4O[C@H](CO)[C@@H](O)[C@H](O)[C@H]4O[C@@H]4O[C@H](CO)[C@@H](O)[C@H](O)[C@H]4O)C(C)(C)[C@@H]3CC[C@]12C [Ginsenoside, ginsenoside RC] | 1.8 | 7.9 | – | – | – | – | fold induction at 10 µM (TRPA1; Homo sapiens, 24 h): 1.5
C=CCc1ccc(O)c(-c2ccc(O)c(CC=C)c2)c1 [Honokiol] | 1.6 | 1.5 | 2.7 | 2.3 | 1.4 | 2.3 | fold induction at 10 µM (CNR2; Skin fibroblast, read-out: CNR2↑ gene expression, fold increase or decrease vs untreated cells): 1.3; fold induction at 10 µM (CNR1; Homo sapiens, Skin fibroblast, 24 h, read-out: CNR1↑ gene expression, fold increase or decrease vs untreated cells): 1.2; fold induction at 10 µM (TRPM8; Skin fibroblast, read-out: TRPM8↑ gene expression, fold increase or decrease vs untreated cells): 1.8; fold induction at 10 µM (IL1A; Skin fibroblast, read-out: IL1A↓ gene expression, fold increase or decrease vs untreated cells): 1.8
CC1CCC(C(C)C)C(O)C1 (centres unmarked) [Menthol, reference compound] | 3.4 | 7.8 | 2.7 | 2 | 2.5 | 1.8 | –
COC(=O)c1ccccc1O [Methyl Salicylate, reference compound] | 1.9 | 1.4 | 2.4 | – | 3 | 1.8 | –
CCCCCCCC/C=C\CCCCCCCC(=O)NCCO [N-Oleylethanolamide] | – | – | – | – | – | – | NFKB1↓ gene expression, fold increase or decrease vs untreated cells (NFKB1): 1.5 fold; MAGL↓ gene expression, fold increase or decrease vs untreated cells (MAGL): 2.5 fold; FAAH↓ gene expression, fold increase or decrease vs untreated cells (FAAH): −1.1 fold; CNR2↑ gene expression, fold increase or decrease vs untreated cells (CNR2): −2.4 fold; CNR1↑ gene expression, fold increase or decrease vs untreated cells (CNR1; [1]): −1.9 fold; TRPM8↑ gene expression, fold increase or decrease vs untreated cells (TRPM8; 10 uM): −1.4 fold; TRPA1↑ gene expression, fold increase or decrease vs untreated cells (TRPA1; [1]): 1.1 fold; PTGS1↓ gene expression, fold increase or decrease vs untreated cells (PTGS1): 1.5 fold; PPARG↑ gene expression, fold increase or decrease vs untreated cells (PPARG): 2.4 fold; IL1A↓ gene expression, fold increase or decrease vs untreated cells (IL1A; 10 uM): −1.9 fold; TRPV1↑ gene expression, fold increase or decrease vs untreated cells (TRPV1): −1.6 fold
